Experimental findings from patent publication US20050148545A1, “Glucosamine organic acid adducts” (priority 2001, published 2005) are described below.

This data set is described as follows: Homogeneity of GOA: citric acid by HPLC in eight aliquots. The data set is classed as physicochemical. The procedure: Citric acid is determined quantitatively by dissolving a known quantity of glucosamine citrate in deionized water. The solution is filtered through a 0.22μ filter into a HPLC vial. The sample is analyzed by HPLC using a BioRad HPX-87H column (BioRad, City, State) and 0.01 N H2SO4 as the mobile phase.
A sample containing a blend comprising 20% by weight anhydrous citric acid and 80% glucosamine hydrochloride was blended by tumbling for five minutes. The blended sample was poured into a tray. Eight aliquots were collected from different areas of the tray. The aliquots were diluted in 0.01N H2SO4, and then analyzed for citric acid by the method described in Example 6. The peak areas were normalized by the aliquot weights, and then averaged. The relative standard deviation for the eight aliquots was 7.7%.
A sample of GOA from Example 2, which had been stored at room temperature in a flask for approximately eleven months, having 12.3% citric acid was analyzed similarly. Eight aliquots were taken from the sample. Citric acid was determined by HPLC as described above. The peak areas were normalized by the aliquot weights, and then averaged. The relative standard deviation for the eight aliquots was 1.9%.
The analytical precision measured from eight aliquots of pure citric acid was 1.8% relative.

Take `N[C@H]1C(O)O[C@H](CO)[C@@H](O)[C@@H]1O.O=C(O)CC(O)(CC(=O)O)C(=O)O` [GOA from Example 2, glucosamine citrate]: the degree of homogeneity entry (precision compared with pure citric acid) is reported as “high degree of homogeneity”.
Turning to `O=C(O)CC(O)(CC(=O)O)C(=O)O` [citric acid], the “analytical precision measured from eight aliquots” value (pure citric acid, HPLC) is 1.8 % relative.
